Results: the supplement of paper PMC10307832

Legend:
Assay in all cases: relative viability (nuclei count vs DMSO), 5 days (fraction); higher = more cells survive
A-427 = tested on: A-427
Outline: (§1)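 Dosing by pin tool came one day after lung cancer cell lines were seeded in 1536-well plates, using either one drug or a fixed anchor-drug dose plus five library-drug doses (not always all listed) in √10 steps. After 5 days, nuclei were counted on 4× images. Relative viability is treated-well nuclei count divided by vehicle-well nuclei count, and values are medians of duplicate plates.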

COR-L 105 = tested on: COR-L 105
Outline: as §1

ChaGo-K-1 = tested on: ChaGo-K-1
Outline: as §1

EKVX = tested on: EKVX
Outline: as §1

EMC-BAC-2 = tested on: EMC-BAC-2
Outline: as §1

H3255 = tested on: H3255
Outline: as §1

HCC-366 = tested on: HCC-366
Outline: as §1

LK-2 = tested on: LK-2
Outline: as §1

LOU-NH91 = tested on: LOU-NH91
Outline: as §1

NCI-H1563 = tested on: NCI-H1563
Outline: as §1

NCI-H1666 = tested on: NCI-H1666
Outline: as §1

NCI-H1734 = tested on: NCI-H1734
Outline: as §1

NCI-H1755 = tested on: NCI-H1755
Outline: as §1

NCI-H1975 = tested on: NCI-H1975
Outline: as §1

NCI-H2170 = tested on: NCI-H2170
Outline: as §1

NCI-H23 = tested on: NCI-H23
Outline: as §1

NCI-H441 = tested on: NCI-H441
Outline: as §1

NCI-H520 = tested on: NCI-H520
Outline: as §1

NCI-H596 = tested on: NCI-H596
Outline: as §1

PC-3 [JPC-3] = tested on: PC-3 [JPC-3]
Outline: as §1

SK-MES-1 = tested on: SK-MES-1
Outline: as §1

CCN(CC)CCCCNc1ncc2cc(-c3cc(OC)cc(OC)c3)c(NC(=O)NC(C)(C)C)nc2n1 + CS(=O)(=O)N1CCN(Cc2cc3nc(-c4cccc5[nH]ncc45)nc(N4CCOCC4)c3s2)CC1 [Pictilisib] (partner 1 µM)
relative viability (A-427; first compound 0.01 µM): 0.704
relative viability (A-427; first compound 0.03162 µM): 0.657
relative viability (A-427; first compound 0.1 µM): 0.769
relative viability (A-427; first compound 0.3162 µM): 0.671
relative viability (A-427; first compound 1 µM): 0.353
relative viability (COR-L 105; first compound 0.01 µM): 0.368
relative viability (COR-L 105; first compound 0.03162 µM): 0.394
relative viability (COR-L 105; first compound 0.1 µM): 0.418
relative viability (COR-L 105; first compound 0.3162 µM): 0.445
relative viability (COR-L 105; first compound 1 µM): 0.392
relative viability (ChaGo-K-1; first compound 0.01 µM): 0.551
relative viability (ChaGo-K-1; first compound 0.03162 µM): 0.559
relative viability (ChaGo-K-1; first compound 0.1 µM): 0.95
relative viability (ChaGo-K-1; first compound 0.3162 µM): 0.98
relative viability (ChaGo-K-1; first compound 1 µM): 0.437
relative viability (EKVX; first compound 0.01 µM): 0.437
relative viability (EKVX; first compound 0.03162 µM): 0.455
relative viability (EKVX; first compound 0.1 µM): 0.42
relative viability (EKVX; first compound 0.3162 µM): 0.407
relative viability (EKVX; first compound 1 µM): 0.465
relative viability (EMC-BAC-2; first compound 0.01 µM): 0.581
relative viability (EMC-BAC-2; first compound 0.03162 µM): 0.507
relative viability (EMC-BAC-2; first compound 0.1 µM): 0.546
relative viability (EMC-BAC-2; first compound 0.3162 µM): 0.574
relative viability (EMC-BAC-2; first compound 1 µM): 0.456
relative viability (H3255; first compound 0.01 µM): 0.421
relative viability (H3255; first compound 0.03162 µM): 0.485
relative viability (H3255; first compound 0.1 µM): 0.569
relative viability (H3255; first compound 0.3162 µM): 0.514
relative viability (H3255; first compound 1 µM): 0.501
relative viability (HCC-366; first compound 0.01 µM): 0.102
relative viability (HCC-366; first compound 0.03162 µM): 0.177
relative viability (HCC-366; first compound 0.1 µM): 0.207
relative viability (HCC-366; first compound 0.3162 µM): 0.164
relative viability (HCC-366; first compound 1 µM): 0.176
relative viability (LK-2; first compound 0.01 µM): 0.624
relative viability (LK-2; first compound 0.03162 µM): 0.438
relative viability (LK-2; first compound 0.1 µM): 0.425
relative viability (LK-2; first compound 0.3162 µM): 0.388
relative viability (LK-2; first compound 1 µM): 0.263
relative viability (LOU-NH91; first compound 0.01 µM): 0.476
relative viability (LOU-NH91; first compound 0.03162 µM): 0.494
relative viability (LOU-NH91; first compound 0.1 µM): 0.611
relative viability (LOU-NH91; first compound 0.3162 µM): 0.524
relative viability (LOU-NH91; first compound 1 µM): 0.51
relative viability (NCI-H1563; first compound 0.01 µM): 0.63
relative viability (NCI-H1563; first compound 0.03162 µM): 0.636
relative viability (NCI-H1563; first compound 0.1 µM): 0.634
relative viability (NCI-H1563; first compound 0.3162 µM): 0.529
relative viability (NCI-H1563; first compound 1 µM): 0.425
relative viability (NCI-H1666; first compound 0.01 µM): 0.363
relative viability (NCI-H1666; first compound 0.03162 µM): 0.405
relative viability (NCI-H1666; first compound 0.1 µM): 0.484
relative viability (NCI-H1666; first compound 0.3162 µM): 0.595
relative viability (NCI-H1666; first compound 1 µM): 0.367
relative viability (NCI-H1734; first compound 0.01 µM): 0.452
relative viability (NCI-H1734; first compound 0.03162 µM): 0.424
relative viability (NCI-H1734; first compound 0.1 µM): 0.54
relative viability (NCI-H1734; first compound 0.3162 µM): 0.427
relative viability (NCI-H1734; first compound 1 µM): 0.395
relative viability (NCI-H1755; first compound 0.01 µM): 0.403
relative viability (NCI-H1755; first compound 0.03162 µM): 0.386
relative viability (NCI-H1755; first compound 0.1 µM): 0.479
relative viability (NCI-H1755; first compound 0.3162 µM): 0.381
relative viability (NCI-H1755; first compound 1 µM): 0.258
relative viability (NCI-H1975; first compound 0.01 µM): 0.28
relative viability (NCI-H1975; first compound 0.03162 µM): 0.277
relative viability (NCI-H1975; first compound 0.1 µM): 0.311
relative viability (NCI-H1975; first compound 0.3162 µM): 0.322
relative viability (NCI-H1975; first compound 1 µM): 0.255
relative viability (NCI-H2170; first compound 0.01 µM): 0.326
relative viability (NCI-H2170; first compound 0.03162 µM): 0.27
relative viability (NCI-H2170; first compound 0.1 µM): 0.299
relative viability (NCI-H2170; first compound 0.3162 µM): 0.317
relative viability (NCI-H2170; first compound 1 µM): 0.322
relative viability (NCI-H23; first compound 0.01 µM): 0.414
relative viability (NCI-H23; first compound 0.03162 µM): 0.411
relative viability (NCI-H23; first compound 0.1 µM): 0.463
relative viability (NCI-H23; first compound 0.3162 µM): 0.37
relative viability (NCI-H23; first compound 1 µM): 0.435
relative viability (NCI-H441; first compound 0.01 µM): 0.48
relative viability (NCI-H441; first compound 0.03162 µM): 0.554
relative viability (NCI-H441; first compound 0.1 µM): 0.412
relative viability (NCI-H441; first compound 0.3162 µM): 0.53
relative viability (NCI-H441; first compound 1 µM): 0.407
relative viability (NCI-H520; first compound 0.01 µM): 0.292
relative viability (NCI-H520; first compound 0.03162 µM): 0.301
relative viability (NCI-H520; first compound 0.1 µM): 0.264
relative viability (NCI-H520; first compound 0.3162 µM): 0.225
relative viability (NCI-H520; first compound 1 µM): 0.146
relative viability (NCI-H596; first compound 0.01 µM): 0.422
relative viability (NCI-H596; first compound 0.03162 µM): 0.418
relative viability (NCI-H596; first compound 0.1 µM): 0.369
relative viability (NCI-H596; first compound 0.3162 µM): 0.378
relative viability (NCI-H596; first compound 1 µM): 0.35
relative viability (PC-3 [JPC-3]; first compound 0.01 µM): 0.739
relative viability (PC-3 [JPC-3]; first compound 0.03162 µM): 0.843
relative viability (PC-3 [JPC-3]; first compound 0.1 µM): 0.786
relative viability (PC-3 [JPC-3]; first compound 0.3162 µM): 0.815
relative viability (PC-3 [JPC-3]; first compound 1 µM): 0.602
relative viability (SK-MES-1; first compound 0.01 µM): 0.307
relative viability (SK-MES-1; first compound 0.03162 µM): 0.334
relative viability (SK-MES-1; first compound 0.1 µM): 0.406
relative viability (SK-MES-1; first compound 0.3162 µM): 0.425
relative viability (SK-MES-1; first compound 1 µM): 0.348
